The values below are quoted from earlier work in patent US12636242B2, “Increased solubilization of diethylamino hydroxybenzoyl hexyl benzoate” (DSM IP ASSETS B.V., priority 2020, dated 2026).

Where two headings read alike, the source gives them in different places.

Where [1] appears, read: listed as Diethylamino hydroxybenzoyl hexyl benzoate.

With `CCCCCCOC(=O)c1ccccc1C(=O)c1ccc(N(CC)CC)cc1O` [UV-filter of the formula (I), diethylamino hydroxybenzoyl hexyl benzoate], the “Solubility in esters and alcohols (ethyl hexyl-benzoate, ethanol)” value is given as “very soluble”; the “Solubility in water and alkanes” value was “insoluble”. Besides, under setting [1], the “Solubility in esters and alcohols (ethyl hexyl-benzoate, ethanol)” value is on record as “moderate solubility”; the “Solubility in water and alkanes” value is reported as “very low”.
